“Also recorded” adds a separate entry of the source.
Experiments:
[1] = Kinetic stability in various pH ranges (evolution of R1 in PBS); format: physicochemical; settings: pH 1, [Gd]=1.0 mM in PBS, room temperature
Protocol: The kinetic stability is expressed as evolution of a water proton relaxation rate (R1) for 2 ([Gd]=1.0 mM) in PBS under various pH conditions (pH: 1, 3, 5, 7, 9 and 11) at a room temperature, as a function of the incubation time. The measurement is executed on a 1.5 T whole body system (GE Healthcare, Milwaukee, Wis., USA).

[2] = Stability against hydrolysis in H2O (HPLC, 197 nm); format: physicochemical; settings: for HPLC peak 2.31 min, 2b / HPLC peak 27.11 min, 2a (trans) / HPLC peak 30.48 min, 2a (cis) / HPLC peak 52.24 min: 2a in water
Protocol: The contrast agents of the present series 100 mg are dissolved in distilled water 10 mL and is maintained as they are for 72 hours at 50° C. Using HPLC, O.D. (Optical Density) values are read at 197 nm and the stability of the agents is determined. The substances at each retention time are examined using LC Mass Spectroscopy for accurate identification of decomposed products.

[3] = tested on: ICR mice; experiment: In vivo MR experiment, T1-weighted images after tail vein injection; settings: 0.1 mmol Gd/kg i.v.
Protocol: The in vivo experiment is executed with compliance to a regulation of Animal Research Committee of KNU. 29-31 g weight 6-weeks male ICR mice are used. […] The measurement is carried out before and after the injection of the complexes 2a-e through the tail vein. […] After the mice wake from the anesthesia after each measurement, the mice were placed in a cage capable of free access to feed and food. For this measurement, the animals are held at about 37° C. using a warm water blanket. MR images are taken using a 1.5 T MR unit (GE Healthcare, Milwaukee, Wis.) with a manual RF coil for a small animal. The coil may be of a receiver type having a 50 mm inner diameter. […] MR images are collected for 24 h after the injection. Anatomical positions having an improved contrast are set for a liver, a bile duct, and a kidney on (post contrast) MR images. For quantitative measurements, a signal intensity in a region of interest (ROI) is measured using Advantage Window software (GE medical, U.S.). The CNR is calculated using a following equation (1): […] SNR is a […].

[4] = Relaxation rate measurement (R1, R2) in PBS and in PBS solution of HSA; format: physicochemical; settings: 293K
Protocol: T1 measurement is carried out using an inversion recovery method at 1.5 T (64 MHz) in a variable inverse time (TI). MR images are obtained for 35 different TI values in a range of 50 to 1750 ms. A T1 relaxation time is obtained from a nonlinear least-squares fit of a signal strength measured at each TI value. For a T2 CPMG (Carr-Purcell-Meiboon-Gill) pulse sequence measurement, the measurement is adapted to a multi spin-echo measurement. 34 images are obtained at 34 different echo time (TE) values in a range of 10 to 1900 ms. The T2 relaxation time is obtained from a nonlinear least-squares fit of mean pixel values for multi spin-echo measurement at each echo time. Next, a relaxation rate (R1 and R2) is calculated as an inverse of a relaxation time per mM. The determined relaxation time (T1 and T2) and relaxation rate (R1 and R2) are subjected to an image processing to get a relaxation time map and relaxation rate respectively.
For comparison between the complexes 2a-e, there is no noticeable difference in R1's. The measurement is carried out for two different media, that is, PBS (pH=7.4) and PBS solution of HAS in order to indicate which blood-pool effect is expressed by the complexes 2a-e.

[5] = Transmetalation kinetics with ZnCl2, evolution of R1P(t)/R1P(0); format: physicochemical; settings: 72 h; phosphate buffer pH 7.4, 2.5 mmol/L Gd complex + 2.5 mmol/L ZnCl2, room temperature, 3T
Protocol: This experiment is prepared using a previous document method (Laurent, S. Elst, L. V.; Copoix, F.; Muller, R. N. Investigative radiology 2001, 36, 115). This is based on measurements of evolution of a water proton longitudinal relaxation rate (R1P) of a buffer solution (phosphate buffer, pH 7.4) containing 2.5 mmol/L gadolinium complex and 2.5 mmol/L ZnCl2. Next, 10 μL ZnCl2 250 mmol/L solution is added to a […] paramagnetic complex buffer solution. The mixture is strongly agitated, and then, 300 μL thereof is taken for a relaxation measurement (relaxometric measurement). […] A R1P relaxation rate is acquired by excluding a diamagnetic contribution of a water proton relaxation from the measured relaxation rate R1=(1/T1). The measurement is performed at a room temperature on a 3T whole body system (Magnetom Tim Trio, Simens, Korea Institute of Radiological & Medical Science).
An evaluation of a normal paramagnetic longitudinal relaxation rate R1P (t)/R1P (0) is observed between the present series 2a-e and comparison examples Dotarem®, Primovist®, Multihance®, and Omniscan® (FIG. 4). The used complex in the test is divided into two following groups based on an evolution pattern: (i) a group employing a macrocyclic chelate (ii) a group employing an acyclic chelate. […]

[6] = PBS solution of 0.67 mM HSA, 64 MHz

CCOC(=O)C1CCC(CNC(=O)CN2CCN(CC(=O)[O-])CCN(CC(=O)[O-])CCN(CC(=O)[O-])CC2)CC1.[Gd+3] (stereo not drawn) [2a]
kinetic stability (evolution of R1) [1]: sufficient kinetic stability | hydrolytic stability (in words) ([2]; 100 mg in distilled water 10 mL, 72 hours at 50° C.): hydrolytic stability falls | HPLC peak 2.31 min, 2b ([2]; 50° C./3 day): 0.72% | HPLC peak 27.11 min, 2a (trans) ([2]; 50° C./3 day): 97.43% | HPLC peak 30.48 min, 2a (cis) ([2]; 50° C./3 day): 1.25% | HPLC peak 52.24 min ([2]; 50° C./3 day): 0.19% | HPLC peak 2.31 min, 2b ([2]; initial): 0.01% | HPLC peak 27.11 min, 2a (trans) ([2]; initial): 97.73% | HPLC peak 30.48 min, 2a (cis) ([2]; initial): 1.89% | HPLC peak 52.24 min ([2]; initial): 0.04% | signal enhancement / signal strength at the liver ([3]; ICR mice, 1.5 T, initial 1 hour): insufficient to be qualified as the liver-specific contrast agent | liver-specificity / class of contrast agent ([3]; in vivo MR images of mice): exhibits the liver-specificity; also recorded: true liver-specific contrast agent | R1 ([4]; PBS pH 7.4, 64 MHz (1.5 T)): 4.84 ± 0.18 mM⁻¹ s⁻¹ | R2 ([4]; PBS pH 7.4, 64 MHz (1.5 T)): 4.91 ± 0.25 mM⁻¹ s⁻¹ | R1 in 0.67 mM HSA [4, 6]: 5.11 ± 0.10 mM⁻¹ s⁻¹ | R2 in 0.67 mM HSA [4, 6]: 6.04 ± 0.13 mM⁻¹ s⁻¹

CNC[C@H](O)[C@@H](O)[C@H](O)[C@H](O)CO.CNC[C@H](O)[C@@H](O)[C@H](O)[C@H](O)CO.O=C([O-])CN(CCN(CC(=O)[O-])CC(=O)O)CCN(CC(=O)O)C(COCc1ccccc1)C(=O)[O-].[Gd+3] (stereo not drawn) [Multihance, Gd-BOPTA]
portion of the initial paramagnetic relaxation rate kept, R1P(t)/R1P(0) [5]: 50%

CCOc1ccc(CC(CN(CCN(CC(=O)[O-])CC(=O)[O-])CC(=O)[O-])N(CC(=O)[O-])CC(=O)[O-])cc1.[Gd+3].[Na+].[Na+] (stereo not drawn) [Primovist, Gd-EOB-DTPA]
portion of the initial paramagnetic relaxation rate kept, R1P(t)/R1P(0) [5]: 50%
